Measurements from US20110130386A1, “DNA-PK INHIBITORS” (priority 2008, published 2011).
Read-outs that look alike come from different tables or passages of the source.

Tests used:
[1] = target: Mammalian DNA-PK (Homo sapiens, UniProt P78527); assay: DNA-PK inhibition assay (ELISA of p53 Ser15 phosphorylation of GST-p53N66); type: biochemical, Mammalian (isolated from HeLa cell nuclear extract)
Procedure: In order to assess the inhibitory action of the compounds against DNA-PK in vitro, the following assay was used to determine IC50 values.
To the assay mix, varying concentrations of inhibitor (in DMSO at a final concentration of 1%) were added. After 10 minutes of incubation, ATP was added to give a final concentration of […] along with a 30 mer double stranded DNA oligonucleotide (final concentraion of 0.5 ng/ml) to initiate the reaction. After 1 hour with shaking, 150 μl of phosphate buffered saline (PBS) was added to the reaction and 5 μl then transferred to a 96 well opaque white plate containing 45 μl of PBS per well where the GSTp53N66 substrate was allowed to bind to the wells for 1 hour. To detect the phosphorylation event on the serine 15 residue of p53 elicited by DNA-PK a p53 phosphoserine-15 antibody (Cell Signaling Technology) was used in a basic ELISA procedure. An anti-rabbit HRP conjugated secondary antibody (Pierce) was then employed in the ELISA before the addition of chemiluminescence reagent. (NEN Renaissance) to detect the signal as measured by chemiluminescent counting via a TopCount NXT (Packard).
The enzyme activity for each compound is then calculated using the following equation: […]
The results are discussed below as IC50 values (the concentration at which 50% of the enzyme activity is inhibited). These are determined over a range of different concentrations, normally from 10 μM down to 0.001 μM. Such IC50 values are used as comparative values to identify increased compound potencies.

[2] = system: HeLa cells; assay: Survival Enhancement Ratio (clonogenic survival after 2 Gray irradiation); type: cell-based, human; details: example compound of WO 03/024949; concentration not given
Procedure: The Survival Enhancement Ratio (SER) is a ratio of the enhancement of cell kill elicited by the DNA-PK inhibitor after 2 Grays of irradiation compared to […]. DNA-PK inhibitors were used at a concentration of 25, 50, 100 and/or 500 nM. Radiation was delivered by a Faxitron 43855D machine at a dose rate of 1 Gy pre minute The SER at 2 Gray irradiation was calculated from the formula:
The degree of cell killing was monitored by a standard clonogenic survival assay. Briefly, tissue culture treated 6-well plates were seeded with HeLa cells at an appropriate concentration to give 100-200 colonies per well and returned to the incubator in order to allow the cells to attach. Four hours later, compound or vehicle control was added to the cells. The cells were then incubated for 1 hour in the presence of inhibitor prior to irradiation at 2 Gray using a Faxitron 43855D cabinet X-ray machine. The cells were then incubated for a further 16 hours before the media was replaced with fresh media in the absence of DNA-PK inhibitor. After 8 days, colonies formed were fixed and stained with Giemsa (Sigma, Poole, UK) and scored using an automated colony counter (Oxford Optronics Ltd, Oxford, UK). The data was calculated as described above.

[3] = target: PI 3-kinase; details: stated as the same as for DNA-PK; cited from earlier work
[4] = system: cells; details: Rosenzweig et al. 1999; cited from earlier work
[5] = DNA-PK from HeLa nuclear extract, mean value, read-out: mean IC50

| Structure (SMILES) | IC50 [1, 5] | also measured |
| --- | --- | --- |
| O=c1cc(N2CCOCC2)oc2c(-c3cccc4c3sc3ccccc34)cccc12 [reference compound] |  | IC50 [1]: 10 to 12 nM; SER [2]: 1.3 |
| O=c1cc(N2CCOCC2)oc2c(-c3ccccc3)cccc12 [LY294002] |  | IC50 [3]: ~1000 nM; sensitisation of cells to the effects of IR [4]: weakly sensitise cells to the effects of IR |
| CC1CC(C)CN(Cc2ccc(-c3cccc4c(=O)cc(N5CCOCC5)oc34)c3sc4ccccc4c23)C1 (centres unmarked) [4an] | 1520 nM |  |
| O=c1cc(N2CCOCC2)oc2c(-c3ccc(CNCc4ccccn4)c4c3sc3ccccc34)cccc12 [4ci] | 177 nM |  |
| O=c1cc(N2CCOCC2)oc2c(-c3ccc(CNC4CCS(=O)(=O)C4)c4c3sc3ccccc34)cccc12 (centres unmarked) [4bd] | 125 nM |  |
| COC[C@H]1CCCN1Cc1ccc(-c2cccc3c(=O)cc(N4CCOCC4)oc23)c2sc3ccccc3c12 [4bf] | 717 nM |  |
| CN(Cc1ccc(-c2cccc3c(=O)cc(N4CCOCC4)oc23)c2sc3ccccc3c12)Cc1ccnn1C [4cc] | 321 nM |  |

More lines, in order of falling IC50 [1, 5], values ahead:

| IC50 [1, 5] | Structure (SMILES) | also measured |
| --- | --- | --- |
| 124 nM | O=c1cc(N2CCOCC2)oc2c(-c3ccc(CN4CCCC(CO)C4)c4c3sc3ccccc34)cccc12 (centres unmarked) [4r] |  |
| 98.5 nM | O=c1cc(N2CCOCC2)oc2c(-c3ccc(CNCc4cccnc4)c4c3sc3ccccc34)cccc12 [4ch] |  |
| 96 nM | O=c1cc(N2CCOCC2)oc2c(-c3ccc(CN4CCC(CO)CC4)c4c3sc3ccccc34)cccc12 [4p] |  |
| 92.9 nM | Cc1n[nH]c(NCc2ccc(-c3cccc4c(=O)cc(N5CCOCC5)oc34)c3sc4ccccc4c23)n1 [4bi] |  |
| 31.2 nM | O=c1cc(N2CCOCC2)oc2c(-c3ccc(CNCC4CCCO4)c4c3sc3ccccc34)cccc12 (centres unmarked) [4a] |  |
| 29.7 nM | N#CCNCc1ccc(-c2cccc3c(=O)cc(N4CCOCC4)oc23)c2sc3ccccc3c12 [4ar] |  |
| 27.3 nM | CN(C)CCN(C)Cc1ccc(-c2cccc3c(=O)cc(N4CCOCC4)oc23)c2sc3ccccc3c12 [4u] |  |
| 22.6 nM | O=c1cc(N2CCOCC2)oc2c(-c3ccc(CNCCO)c4c3sc3ccccc34)cccc12 [4c] |  |
| 17.3 nM | O=c1cc(N2CCOCC2)oc2c(-c3ccc(CNCCCN4CCCC4)c4c3sc3ccccc34)cccc12 [4ba] |  |
| 3.74 nM | CC1CN(Cc2ccc(-c3cccc4c(=O)cc(N5CCOCC5)oc34)c3sc4ccccc4c23)CCN1C (centres unmarked) [4cb] |  |
| 1.32 nM | CN(C)[C@H]1CCN(Cc2ccc(-c3cccc4c(=O)cc(N5CCOCC5)oc34)c3sc4ccccc4c23)C1 [4bu] |  |
